Patent publication US10981902B2 (Merck Sharp & Dohme Corp., priority 2017, dated 2021)

Target: T1, human M4 muscarinic acetylcholine receptor (Homo sapiens, UniProt P08173)
T1 construct: expressed in transfected cells; host or cells: CHO-K1
T1 sequence (P08173 1-479): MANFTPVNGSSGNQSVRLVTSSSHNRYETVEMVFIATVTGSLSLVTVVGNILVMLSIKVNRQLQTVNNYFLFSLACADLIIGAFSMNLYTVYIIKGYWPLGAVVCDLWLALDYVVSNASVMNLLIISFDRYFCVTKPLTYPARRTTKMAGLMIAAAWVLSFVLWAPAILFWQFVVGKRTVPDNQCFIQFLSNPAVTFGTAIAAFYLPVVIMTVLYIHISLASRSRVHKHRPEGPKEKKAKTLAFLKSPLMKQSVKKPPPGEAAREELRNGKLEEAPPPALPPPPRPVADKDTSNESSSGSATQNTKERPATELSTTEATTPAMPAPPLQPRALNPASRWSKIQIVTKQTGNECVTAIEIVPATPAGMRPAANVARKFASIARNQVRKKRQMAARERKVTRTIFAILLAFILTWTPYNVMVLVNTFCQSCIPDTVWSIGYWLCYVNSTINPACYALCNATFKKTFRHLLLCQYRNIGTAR
Test: human FLIPR-based M4 PAM assay (calcium mobilization, CHO-K1 cells with human M4 receptor and Gαqi5)
Assay type: cell-based
Conditions: inflection point (IP) of dose response curve, acetylcholine added at 20% of maximum response, read-out: M4 FLIPPR Hu IP
Protocol: In a typical experiment the M4 muscarinic acetylcholine receptor modulating activity of the compounds of the present invention was determined in accordance with the following experimental method. CHO-K1 cells stably transfected with human M4 receptor and chimeric G-protein Gαqi5 (Coward P, et al., Analytical Biochemistry, 270:242-248 (1999)) are thawed from liquid N2 storage, resuspended in growth medium, plated in black, clear bottom 384 well plates, and incubated 16-20 hours at 37° C., 5% CO2. On the day of assay, growth medium is removed, the cells are washed 2 times with wash buffer, and cells are incubated in dye loading buffer at 37° C., 5% CO2 for ˜1 hour. Following dye loading the cell plates are placed in a FLIPR Tetra instrument and while monitoring dye fluorescence (excitation […]), 10 uL of test substance at increasing concentrations is added, and fluorescence values are recorded for 4 min. Next, 10 uL of acetylcholine is added (final concentration calculated so as to achieve 20% of the maximum acetycholine response), and the fluorescence reading is continued for 3.5 min. In some cases, a third addition of acetylcholine (final concentration calculated to achieve 70% of the maximal acetylcholine response) is performed. The resulting dose response curves are fit to a 4 parameter logistic equation and the final result is determined as the inflection point (IP) of the curve
CHO-K1 cells stably transfected with human M4 receptor and chimeric G-protein Gαqi5 are thawed from liquid N2 storage, resuspended in growth medium, plated in black, clear bottom 384 well plates, and incubated 16-20 hours at 37° C., 5% CO2.
On the day of assay, growth medium is removed, the cells are washed 2 times with wash buffer, and cells are incuabted in dye loading buffer at 37° C., 5% CO2 for ˜1 h. Following dye loading the cell plates are placed in a FLIPR Tetra instrument and while monitoring dye fluorescence ([…]), 10 uL of test substance at increasing concentrations is added, and fluorescence values are recorded for 4 min. Next, 10 uL of acetylcholine is added (final concentration calculated so as to achieve 20% of the maximum acetycholine response), and the fluorescence reading is continued for 3.5 min. In some cases, a third addition of acetylcholine (final concentration calculated to achieve 70% of the maximal acetylcholine response) is performed.

SMILES	EC50
Cc1cn2ccc(-c3nc(C#N)ccc3-c3cnc(CC4(O)CCCC4)o3)cc2n1 [Example 75, 5-(2-((1-hydroxycyclopentyl)methyl)oxazol-5-yl)-6-(2-methylimidazo [1,2-a]pyridin-7-yl) picolinonitrile]	230 nM
CC(Cc1ncc(-c2ccc(C#N)nc2-c2ccn3ccnc3c2)o1)C(F)(F)F (racemic) [Example 38, 6-(imidazo[1,2-a]-pyridin-7-yl)-5-(2-(3,3,3-trifluoro-2-methylpropyl)oxazol-5-yl)picolinonitrile]	212 nM
Cc1cn2ccc(-c3nc(C#N)ccc3-c3cnc(CC4CC(F)(F)C4)o3)cc2n1 [Example 98, 5-(2-((3,3-difluorocyclobutyl)methyl)oxazol-5-yl)-6-(2-methylimidazo[1,2-a]pyridin-7-yl)picolinonitrile]	36 nM
CC(C)(C)Cc1ncc(-c2ccc(C(F)F)nc2-c2ccc3cccnc3c2)o1 [Example 13, 5-(6-(difluoro-methyl)-2-(quinolin-7-yl)pyridin-3-yl)-2-neopentyloxazole]	128 nM
CN1Cc2ccc(-c3nc(C#N)ccc3-c3cnc(CC(C)(C)C(F)(F)F)o3)cc2C1=O [Example 22, 6-(2-methyl-3-oxoisoindolin-5-yl)-5-(2-(3,3,3-trifluoro-2,2-dimethylpropyl)-oxazol-5-yl)picolino-nitrile]	76 nM
CC(C)(Cc1ncc(-c2ccc(C(F)F)nc2-c2ccc3cccnc3c2)o1)C(F)(F)F [Example 24, 5-(6-(difluoro-methyl)-2-(quinolin-7-yl)pyridin-3-yl)-2-(3,3,3-trifluoro-2,2-dimethylpropyl)-oxazole]	136 nM
COc1cc2ccc(-c3nc(C)ccc3-c3cnc(Cc4ccc(F)cc4)o3)cc2nn1 [Example 54, 2-(4-fluorobenzyl)-5-(2-(3-methoxycinnolin-7-yl)-6-methylpyridin-3-yl)oxazole]	45 nM
Cc1nnc2cc(-c3nc(C#N)ccc3-c3cnc(CC(C)(C)C)o3)ccn12 [Example 35, 6-(3-methyl-[1,2,4]-triazolo[4,3-a]pyridin-7-yl)-5-(2-neopentyl-oxazol-5-yl)picolino-nitrile]	130 nM
CC(C)(C)Cc1ncc(-c2ccc(C#N)nc2-c2ccn3ccnc3c2)o1 [Example 16, 6-(imidazo[1,2-a]-pyridin-7-yl)-5-(2-neopentyloxazol-5-yl)picolinonitrile]	61 nM
N#Cc1ccc(-c2cnc(C[C@@H]3CC[C@H](F)C3)o2)c(-c2ccc3cccnc3c2)n1 [Example 101, 5-(2-(((1S,3S)-3-fluorocyclopentyl)methyl)oxazol-5-yl)-6-(quinolin-7-yl)picolinonitrile]	25 nM
CN1Cc2ccc(-c3nc(C(F)F)ccc3-c3cnc(CC(C)(C)C(F)(F)F)o3)cc2C1=O [Example 26, 6-(6-(difluoromethyl)-3-(2-(3,3,3-trifluoro-2,2-dimethylpropyl)-oxazol-5-yl)pyridin-2-yl)-2-methylisoindolin-1-one]	63 nM
N#Cc1ccc(-c2cnc(CC3CCCC3)o2)c(-c2cnc3c(c2)C(=O)N(CC2CC2)C3)n1 [Example 51, 5-(2-(cyclopentylmethyl)oxazol-5-yl)-6-(6-(cyclopropylmethyl)-5-oxo-6,7-dihydro-5H-pyrrolo[3,4-b]pyridin-3-yl) picolinonitrile]	42 nM
CC(C)(C)Cc1ncc(-c2cc(F)cnc2-c2ccn3ccnc3c2)o1 [Example 27, 5-(5-fluoro-2-(imidazo[1,2-a]-pyridin-7-yl)-pyridin-3-yl)-2-neopentyloxazole]	113 nM
CC(C)(C)CCc1ncc(-c2ccc(C#N)nc2-c2ccn3ccnc3c2)o1 [Example 66, 5-(2-(3,3-dimethylbutyl)oxazol-5-yl)-6-(imidazo[1,2-a]pyridin-7-yl) picolinonitrile]	42 nM
N#Cc1ccc(-c2cnc(CC3(F)CCCC3)o2)c(-c2ccc3cccnc3c2)n1 [Example 72, 5-(2-((1-fluorocyclopentyl)methyl)oxazol-5-yl)-6-(quinolin-7-yl)picolinonitrile]	51 nM
CN1Cc2ccc(-c3nc4c(cc3-c3cnc(CC5(C)CCCC5)o3)CCC4=O)cc2C1=O [Example 41, 2-(2-methyl-3-oxoisoindolin-5-yl)-3-(2-((1-methyl-cyclopentyl)-methyl)oxazol-5-yl)-5,6-dihydro-7H-cyclopenta[b]-pyridin-7-one]	45 nM
CN1C(=O)c2cc(-c3nc4c(cc3-c3cnc(CC5(C)CCCC5)o3)CCC4)cnc2C1=O [Example 10, 6-methyl-3-(3-(2-((1-methylcyclo-pentyl)methyl)oxazol-5-yl)-6,7-dihydro-5H-cyclopenta[b]-pyridin-2-yl)-5H-pyrrolo[3,4-b]-pyridine-5,7(6H)-dione]	209 nM
Cc1ccc(-c2cnc(CC3CCCC3)o2)c(-c2ccc3cccnc3c2)n1 [Example 1, 2-(cyclopentylmethyl)-5-(6-methyl-2-(quinolin-7-yl)pyridin-3-yl)oxazole]	7 nM
Cc1cn2ccc(-c3nc(C#N)ccc3-c3cnc(CC(C)C(F)(F)F)o3)cc2n1 (centres unmarked) [Example 95, 6-(2-methylimidazo[1,2-a]pyridin-7-yl)-5-(2-(3,3,3-trifluoro-2-methylpropyl)oxazol-5-yl)picolinonitrile]	194 nM
Cn1cnc2cc(-c3ncccc3-c3cnc(CC(C)(C)C(F)(F)F)o3)ccc21 [Example 115, 5-(2-(1-methyl-1H-benzo[d]imidazol-5-yl)pyridin-3-yl)-2-(3,3,3-trifluoro-2,2-dimethylpropyl) oxazole]	128 nM
CC(C)(C)Cc1ncc(-c2ccc(C#N)nc2-c2cnc3c(c2)C(=O)N(CC2CC2)C3)o1 [Example 39, 6-(6-(cyclopropyl-methyl)-5-oxo-6,7-dihydro-5H-pyrrolo[3,4-b]-pyridin-3-yl)-5-(2-neopentyloxazol-5-yl)picolinonitrile]	93 nM
Cc1nc2cc(-c3nc(C#N)ccc3-c3cnc(CC(C)(C)C)o3)ccn2n1 [Example 34, 6-(2-methyl[1,2,4]-triazolo[1,5-a]pyridin-7-yl)-5-(2-neopentyl-oxazol-5-yl)picolino-nitrile]	107 nM
CC(C)(F)Cc1ncc(-c2ccc(C#N)nc2-c2ccc3cccnc3c2)o1 [Example 80, 5-(2-(2-fluoro-2-methylpropyl)oxazol-5-yl)-6-(quinolin-7-yl) picolinonitrile]	141 nM
COc1cc2ccc(-c3nc(C(F)F)ccc3-c3cnc(CC(C)(C)C)o3)cc2nn1 [Example 14, 5-(6-(difluoro-methyl)-2-(3-methoxycinnolin-7-yl)pyridin-3-yl)-2-neopentyloxazole]	172 nM
CN1Cc2ncc(-c3nc(C(F)F)ccc3-c3cnc(CC(C)(C)C)o3)cc2C1=O [Example 20, 3-(6-(difluoro-methyl)-3-(2-neopentyloxazol-5-yl)pyridin-2-yl)-6-methyl-6,7-dihydro-5H-pyrrolo[3,4-b]-pyridin-5-one]	163 nM
CC(C)(F)CCc1ncc(-c2ccc(C#N)nc2-c2ccn3ccnc3c2)o1 [Example 104, 5-(2-(3-fluoro-3-methylbutyl)oxazol-5-yl)-6-(imidazo[1,2-a]pyridin-7-yl) picolinonitrile]	147 nM
Cc1cn2ccc(-c3ncccc3-c3cnc(CC4(F)CCCC4)o3)cc2n1 [Example 91, 2-((1-fluorocyclopentyl)methyl)-5-(2-(2-methylimidazo [1,2-a]pyridin-7-yl)pyridin-3-yl)oxazole]	76 nM
CC(C)CCc1ncc(-c2ccc(C#N)nc2-c2ccc3cccnc3c2)o1 [Example 31, 5-(2-isopentyloxazol-5-yl)-6-(quinolin-7-yl)picolinonitrile]	43 nM
COCc1cn2ccc(-c3nc(C#N)ccc3-c3cnc(CC4CC4)o3)cc2n1 [Example 93, 5-(2-(cyclopropylmethyl)oxazol-5-yl)-6-(2-(methoxymethyl)imidazo[1,2-a]pyridin-7-yl)picolinonitrile]	137 nM
